Data published in patent publication US20050271676A1, “Inducing cellular immune responses to human immunodeficiency virus-1 using peptide and nucleic acid compositions” (Epimmune Inc., priority 1993, published 2005).
pIC50: −log10 of the molar value. No end group written: not given here.

Key:
[1] = target: HLA-A*1101 (Homo sapiens, UniProt P04439, A114D/D185E/E176A/F33Y/L180Q/S129P/T187R); assay: purified HLA class I binding assay, A*1101
[2] = target: T1, HLA-A*0301 (Homo sapiens, UniProt P04439); assay: purified HLA class I binding assay, A*0301
T1 construct: endogenous in cells; host or cells: GM3107

[3] = target: HLA-A*3301 (Homo sapiens, UniProt P04439, A270S/D185E/E176V/E277Q/E87N/F33T/G231S/H175R/I121M/I218V/I322F/K168Q/K210R/L300P/L318F/M331R/P217A/Q86R/Q94H/R138Q/T323A/T345S/T97I/V358M/Y195H); assay: purified HLA class I binding assay, A*3301
[4] = target: HLA-A*3101 (Homo sapiens, UniProt P04439, A270S/D185E/E176V/E277Q/F33T/G231S/G80R/H175R/I121M/I218V/I322F/K168Q/L300P/L318F/M331R/P217A/Q94H/R138Q/T323A/T345S/T97I/V358M); assay: purified HLA class I binding assay, A*3101
[5] = target: T2, HLA-DRB1*1201 (DR5w12) (Homo sapiens, UniProt P01903+P01911, A100R/A169T/D57E/D86V/F55L/H45Y/K41T/L162R/M171V/P40S/Q125H/Q178H/Q39Y/Q99D/R42G/S66L/T262R/V114A/V67L/W38E/Y59H/Y61H/Y89S); assay: purified HLA class II binding assay, DRB1*1201 (DR5w12); conditions: for DR5w12 binding: HIV DR super motif peptides, unit not given
T2 construct: endogenous in cells

[6] = target: T3, HLA-DRB1*0701 (DR7) (Homo sapiens, UniProt P01903+P01911, A100R/A102G/A103Q/D57E/D86V/E43K/F76Y/K127E/L162R/M171V/P40G/Q125H/Q99D/R33Q/R42Y/R54Q/S133A/S66F/T210M/V115G/Y107V/Y59L/Y89S); assay: biochemical; format: binding
T3 construct: endogenous in cells; host or cells: Pitout

[7] = target: HLA-DRB1*0405 (DR4w15) (Homo sapiens, UniProt P01903+P01911, A100R/A169T/D86S/F76Y/I96L/K127E/L162R/M171V/N62H/P40V/Q125Y/R42H/S133A/S149N/S66Y/V115G/V209L/W38E); assay: purified HLA class II binding assay, DRB1*0405 (DR4w15)
[8] = target: T4, HLA-DRB1*0301 (DR3) (Homo sapiens, UniProt P01903+P01911, A100K/A102G/A103R/A169T/F55Y/I96L/K41T/L162R/M171V/P40S/Q125H/Q178H/Q39Y/R42S/S66N/T106N/T262R/W38E/Y61H); assay: purified HLA class II binding assay, DRB1*0301 (DR3), pH 4.5; conditions: for DR3 binding: HIV DR super motif peptides, unit not given
T4 construct: endogenous in cells; host or cells: MAT

[9] = target: T5, HLA-DRB1*1101 (DR5w11) (Homo sapiens, UniProt P01903+P01911, A100R/A169T/A87E/I96F/K41T/L162R/M171V/P40S/Q125H/Q178H/Q39Y/Q99D/R42S/S66Y/T262R/V115G/W38E); assay: biochemical; format: binding
T5 construct: endogenous in cells

[10] = target: HLA-DRB1*1302 (DR6w19) (Homo sapiens, UniProt P01903+P01911, A100E/A169T/K41T/L162R/M171V/P40S/Q125H/Q178H/Q39Y/Q99D/R42S/S66N/T262R/V115G/W38E/Y61H); assay: purified HLA class II binding assay, DRB1*1302 (DR6w19); conditions: for DR6w19 binding: HIV DR super motif peptides, unit not given
[11] = target: T6, HLA-DRB1*0901 (DR9) (Homo sapiens, UniProt P01903+P01911, A100R/A103E/D57H/D86V/F55Y/F60I/F76Y/I96F/K127E/L162R/M171V/P40D/Q125H/Q99R/R33Q/R42F/S133A/S66N/T210M/V115G/W38K/Y107V/Y59G/Y89S); assay: biochemical; format: binding
T6 construct: endogenous in cells

[12] = target: T7, HLA-DRB1*0802 (DR8w2) (Homo sapiens, UniProt P01903+P01911, A100R/A103L/A169T/F76Y/H45Y/I96F/K41T/L162R/M171V/P40S/Q125H/Q178H/Q39Y/Q99D/R218S/R42G/S66Y/V115G/W38E); assay: biochemical; format: binding
T7 construct: endogenous in cells

[13] = target: T8, HLA-DRB1*0401 (DR4w4) (Homo sapiens, UniProt P01903+P01911, A100K/A169T/F76Y/I96L/K127E/L162R/M171V/N62H/P40V/Q125Y/R42H/S133A/S149N/S66Y/V115G/V209L/W38E); assay: purified HLA class II binding assay, DRB1*0401 (DR4w4); conditions: for DR4w4 binding: HIV DR super motif peptides, unit not given
T8 construct: endogenous in cells; host or cells: Preiss

[14] = target: T9, HLA-DRB5*0101 (DR2w2β2) (Homo sapiens, UniProt P01903+Q30154); assay: biochemical; format: binding
T9 construct: expressed in transfected cells

[15] = target: T10, HLA-DRB1*1501 (DR2w2β1) (Homo sapiens, UniProt P01903+P01911); assay: purified HLA class II binding assay, DRB1*1501 (DR2w2β1); conditions: for DR2 wβ1 binding: HIV DR super motif peptides, unit not given
T10 construct: expressed in transfected cells

[16] = target: HLA-A*0101 (Homo sapiens, UniProt P04439, A114D/A174V/A182V/D101N/D185E/E176A/E190D/L180R/Q94H/R68K/S129P/T187R/V100A/V91M/W191G); assay: biochemical; format: binding
[17] = target: HLA-B*5401 (Homo sapiens, UniProt P01889, A329T/C349S/D138N/D201E/E176V/E187T/E204Q/E69G/I76V/K202T/L119W/R155S/R180L/S121T/S35A/S48A/V127L/V306I/V36M/Y140L); assay: biochemical
[18] = target: HLA-A*6801 (Homo sapiens, UniProt P04439, A269V/D185E/E176V/E277Q/E87N/F33Y/G231S/I121M/I166T/I218V/L180W/L300P/L318F/N151K/P208A/P217A/Q86R/R169H/T345S); assay: purified HLA class I binding assay, A*6801

T5 sequence (P01903 26-254, other chains not shown): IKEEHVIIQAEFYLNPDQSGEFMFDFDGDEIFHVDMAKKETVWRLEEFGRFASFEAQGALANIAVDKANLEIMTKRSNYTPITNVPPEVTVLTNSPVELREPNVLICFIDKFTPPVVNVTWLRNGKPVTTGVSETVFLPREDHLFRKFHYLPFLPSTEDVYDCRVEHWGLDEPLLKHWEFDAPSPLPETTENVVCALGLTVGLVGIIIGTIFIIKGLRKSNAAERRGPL
T4 sequence (P01903 26-254 partner, other chains not shown): as the sequence (P01903 26-254, other chains not shown) above
T8 sequence (P01903 26-254 partner, other chains not shown): as the sequence (P01903 26-254, other chains not shown) above

CC[C@H](C)[C@H](NC(=O)[C@H](Cc1ccccc1)NC(=O)[C@@H](NC(=O)[C@H](C)N)C(C)C)C(=O)N[C@@H](Cc1c[nH]cn1)C(=O)N[C@@H](CC(N)=O)C(=O)N[C@@H](Cc1ccccc1)C(=O)N[C@@H](CCCCN)C(=O)N[C@@H](CCCNC(=N)N)C(=O)O [1193.03]
pIC50 [1]: 8.48 | pIC50 [2]: 7.19 | pIC50 [3]: 6.97 | pIC50 [4]: 8.29

CC[C@H](C)[C@H](NC(=O)[C@H](C)NC(=O)[C@@H]1CCCN1C(=O)[C@@H](N)CO)C(=O)N[C@@H](Cc1ccccc1)C(=O)N[C@@H](CCC(N)=O)C(=O)N[C@@H](CO)C(=O)N[C@@H](CO)C(=O)N[C@@H](CCSC)C(=O)N[C@H](C(=O)N[C@@H](CCCCN)C(=O)N[C@H](C(=O)N[C@@H](CC(C)C)C(=O)N[C@@H](CCC(=O)O)C(=O)N1CCC[C@H]1C(=O)O)[C@@H](C)CC)[C@@H](C)O [Peptide 27.0344]
pIC50 [5]: < 4.70 | pIC50 [6]: 7.17 | pIC50 [7]: 6.96 | pIC50 [8]: < 4.70 | pIC50 [9]: 6.13 | pIC50 [10]: 7.89 | pIC50 [11]: 7.48 | pIC50 [12]: 5.49 | pIC50 [13]: 5.45

CC(C)C[C@H](NC(=O)[C@H](CCCCN)NC(=O)[C@@H](NC(=O)[C@H](CC(C)C)NC(=O)[C@@H]1CCCN1C(=O)[C@@H]1CCCN1C(=O)[C@@H](NC(=O)[C@H](CC(N)=O)NC(=O)[C@@H](NC(=O)[C@H](Cc1ccccc1)NC(=O)[C@H](CCC(=O)O)NC(=O)[C@@H](N)Cc1c[nH]c2ccccc12)C(C)C)[C@@H](C)O)C(C)C)C(=O)N[C@@H](Cc1c[nH]c2ccccc12)C(=O)N[C@@H](Cc1ccc(O)cc1)C(=O)N[C@@H](CCC(N)=O)C(=O)O [Peptide 27.0354]
pIC50 [5]: 5.87 | pIC50 [6]: 7.82 | pIC50 [14]: 8.68 | pIC50 [7]: 7.70 | pIC50 [10]: 7.05 | pIC50 [11]: 7.41 | pIC50 [12]: 6.46 | pIC50 [13]: 7.55

CC[C@H](C)[C@H](NC(=O)[C@H](C)N)C(=O)N[C@@H](Cc1ccccc1)C(=O)N[C@@H](CCC(N)=O)C(=O)N[C@@H](CO)C(=O)N[C@@H](CO)C(=O)N[C@@H](CCSC)C(=O)N[C@H](C(=O)N[C@@H](CCCCN)C(=O)O)[C@@H](C)O [Peptide 966.01]
pIC50 [1]: 8.00 | pIC50 [2]: 8.00 | pIC50 [3]: 4.01 | pIC50 [4]: 4.92

CC[C@H](C)[C@H](NC(=O)CNC(=O)[C@H](CCCCN)NC(=O)[C@H](Cc1c[nH]cn1)NC(=O)[C@H](C)NC(=O)[C@@H]1CCCN1C(=O)[C@@H](NC(=O)[C@H](Cc1c[nH]c2ccccc12)NC(=O)[C@H](C)NC(=O)[C@H](CC(C)C)NC(=O)[C@H](Cc1ccc(O)cc1)NC(=O)[C@@H](NC(=O)[C@@H](N)CCCCN)C(C)C)C(C)C)C(=O)NCC(=O)NCC(=O)O [Peptide 1280.03]
pIC50 [5]: 4.90 | pIC50 [14]: 7.62 | pIC50 [15]: 7.60 | pIC50 [8]: < 4.70 | pIC50 [9]: 7.15 | pIC50 [10]: 5.60 | pIC50 [11]: 6.60

ASGYIEAEVIPAFTG
DR5w12 binding [5]: −0.0045 | DR7 binding [6]: 0.0710 | DR2w2β2 binding [14]: −0.0021 | DR2 wβ1 binding [15]: −0.0003 | DR3 binding [8]: −0.0043 | DR5w11 binding [9]: 0.0020 | DR6w19 binding [10]: 0.0400 | DR9 binding [11]: 0.0320 | DR8w2 binding [12]: −0.0003 | DR4w4 binding [13]: 0.2300

EVNIVTDSQY [Peptide 1.0431]
pIC50 [16]: 6.33

HSNWRAMASDFNLPP [Peptide 27.0364]
pIC50 [5]: < 4.70 | pIC50 [6]: 6.33 | pIC50 [7]: 7.82 | pIC50 [15]: < 4.70 | pIC50 [8]: < 4.70 | pIC50 [9]: 7.02 | pIC50 [10]: 5.36 | pIC50 [11]: 6.06 | pIC50 [12]: 5.71 | pIC50 [13]: 7.96

ILKEVYIIGVY
A*0101 (binding information) [16]: 0.0017

IPIHYCAPA [1296.01]
pIC50 [17]: 8.43

IVIWGKTPK [1193.0200]
pIC50 [1]: 7.79 | pIC50 [3]: 7.01 | pIC50 [4]: 7.74

KLAGRWPVK [1069.44]
pIC50 [2]: 8.07 | pIC50 [3]: 4.14 | pIC50 [18]: 4.10 | pIC50 [4]: 6.30

LVAVIIVASGY
A*0101 (binding affinity ratio) [16]: 0.0390 | A*0101 (binding information) [16]: 0.0390

NTPVFAIKK [1273.02]
pIC50 [1]: 7.00 | pIC50 [3]: 4.32 | pIC50 [4]: 4.52

QHLLQLTVWGIKQLQ [Peptide 27.0297]
pIC50 [6]: 7.36 | pIC50 [14]: 6.16 | pIC50 [15]: 7.68 | pIC50 [8]: < 4.70 | pIC50 [10]: 6.46 | pIC50 [12]: 6.04

QKEPPFLWMG
A*0101 (binding affinity ratio) [16]: 0.0004

QKQITKIQNFRVYYR [Peptide 27.0377]
pIC50 [5]: 6.91 | pIC50 [6]: 7.60 | pIC50 [14]: 7.10 | pIC50 [7]: 7.31 | pIC50 [15]: 8.47 | pIC50 [8]: < 4.70 | pIC50 [9]: 7.28 | pIC50 [10]: 7.60 | pIC50 [11]: 6.24 | pIC50 [12]: 7.12

SPEVIFMFSALSEGA
DR5w12 binding [5]: −0.0045 | DR7 binding [6]: −0.0007 | DR2w2β2 binding [14]: 0.0034 | DR2 wβ1 binding [15]: 0.0280 | DR3 binding [8]: −0.0043 | DR5w11 binding [9]: 0.0075 | DR6w19 binding [10]: 0.0007 | DR9 binding [11]: 0.0130 | DR8w2 binding [12]: 0.0130 | DR4w4 binding [13]: 0.1600

TIKIGGQLK [1273.05]
pIC50 [2]: 7.39 | pIC50 [3]: 4.44 | pIC50 [4]: 4.74

TTLFCASDAK [1273.07]
pIC50 [1]: 7.56 | pIC50 [2]: 6.92 | pIC50 [3]: 4.84 | pIC50 [4]: 5.02

VMIVWQVDR [Peptide 1273.08]
pIC50 [1]: 6.56 | pIC50 [3]: 8.28 | pIC50 [4]: 8.42

VTVLDVGDAY [Peptide 1069.26]
pIC50 [16]: 6.36
